US20020082452A1, “alpha-sulfin-and alpha-sulfonamino acid amides” (priority 1998, published 2002)

Tests used:
[1] = system: Plasmopara viticola; experiment: D-1: Action against Plasmopara viticola on vines (residual-protective and residual-curative action); format: in vivo; details: vine seedlings, spray mixture 0.02% active ingredient, evaluated after 6 days at 95-100% relative humidity and 20° C.
Description: D-1: Action against Plasmopara viticola on Vines a) Residual-Protective Action
Vine seedlings are sprayed at the 4- to 5-leaf stage with a spray mixture (0.02% active ingredient) prepared from a wettable powder formulation of the test compound. After 24 hours, the treated plants are infected with a sporangia suspension of the fungus. Fungus infestation is evaluated after incubation for 6 days at 95-100% relative humidity and 20° C. […]
b) Residual-Curative Action
Vine seedlings are infected at the 4- to 5-leaf stage with a sporangia suspension of the fungus. After incubation for 24 hours in a humidity chamber at 95-100% relative humidity and 20° C., the infected plants are dried and sprayed with a spray mixture (0.02% active ingredient) prepared from a wettable powder formulation of the test compound. After the spray coating has dried, the treated plants are placed in the humidity chamber again. Fungus infestation is evaluated 6 days after infection. […] Compounds A1.02, A1.03, A1.04, A1.03, A1.5, A1.06, A1.07, A1.09, A1.10, A1.13, A1.14, A1.15, A1.16, A1.21, A1.23.

[2] = system: Phytophthora; experiment: D-3: Action against Phytophthora on potato plants (residual-protective and systemic action); format: in vivo; details: potato plants (Bintje variety), spray mixture 0.02% active ingredient (sprayed or watered), evaluated after 4 days at 90-100% relative humidity and 20° C.
Description: D-3 Action Against Phytophthora on Potato Plants
(§1) a) Residual-Protective Action
(§2) 2-3 week old potato plants (Bintje variety) are sprayed with a spray mixture (0.02% active ingredient) prepared from a wettable powder formulation of the test compound. After 48 hours, the treated plants are infected with a sporangia suspension of the fungus. Fungus infestation is evaluated after incubation of the infected plants for 4 days at 90-100% relative humidity and 20° C.
as §2, with “watered” for “sprayed”, “ingredient based on the volume of the soil)” for “ingredient)”, “compound. […]” for “compound.”, “C. Fungal infestation is effectively controlled with compounds of Tables 1 to 37. Compounds A1.02, A1.03, A1.04, A1.03, A1.05, A1.06, A1.07, A1.09, A1.10, A1.13, A1.14, A1.15, A1.16, A1.21, A1.23.” for “C.”

[3] = system: Phytophthora; experiment: D-2: Action against Phytophthora on tomato plants (residual-protective and systemic action); format: in vivo; details: spray mixture 0.02% active ingredient (sprayed or watered), evaluated after 4-5 days at 90-100% relative humidity and 20° C.
Description: D-2: Action Against Phytophthora on Tomato Plants
as §1
(§3) After a cultivation period of 3 weeks, tomato plants are sprayed with a spray mixture (0.02% active ingredient) prepared from a wettable powder formulation of the test compound. After 48 hours, the treated plants are infected with a sporangia suspension of the fungus. Fungus infestation is evaluated after incubation of the infected plants for 5 days at 90-100% relative humidity and 20° C.
as §3, with “watered” for “sprayed”, “ingredient based on the volume of the soil)” for “ingredient)”, “compound. […]” for “compound.”, “96” for “48”, “4” for “5”, “C. […] Compounds A1.02, A1.03, A1.04, A1.03, A1.05, A1.06, A1.07, A1.09, A1.10, A1.13, A1.14, A1.15, A1.16, A1.21, A1.23.” for “C.”

Structure (SMILES)	melting point	Fungus infestation [1]	Fungus infestation [2]	Fungus infestation [3]
CCS(=O)(=O)N[C@H](C(=O)NCCc1ccc(OC/C=C\c2ccc(Cl)cc2)c(OC)c1)C(C)C [Compound A3.03, Z-(S)-N-(2-{4-[3-(4-Chloro-phenyl)-allyloxy]-3-methoxy-phenyl}-ethyl)-2-ethanesulfonylamino-3-methyl-butyramide]	141 to 143 °C	completely inhibit fungal infestation	completely inhibit fungal infestation	completely inhibit fungal infestation
CCS(=O)(=O)N[C@H](C(=O)NCCc1ccc(OCCOc2ccc(F)cc2)c(OC)c1)C(C)C	124 to 125 °C			
COc1cc(CCNC(=O)[C@@H](NS(C)(=O)=O)C(C)C)ccc1OC/C=C/c1ccc(Cl)cc1 [Compound A2.04]		completely inhibit fungal infestation	completely inhibit fungal infestation	completely inhibit fungal infestation
CC[C@H](NS(=O)(=O)CC)C(=O)NCCc1ccc(OCCOc2ccccc2)c(OC)c1 [Compound A1.10]		completely inhibit fungal infestation	completely inhibit fungal infestation	completely inhibit fungal infestation
COc1cc(CCNC(=O)[C@@H](NS(C)(=O)=O)C(C)C)ccc1OCCOc1ccc(Cl)c(Cl)c1 [Compound A1.75]		completely inhibit fungal infestation	completely inhibit fungal infestation	completely inhibit fungal infestation
COc1cc(CCNC(=O)[C@@H](NS(C)(=O)=O)C(C)C)ccc1OCCSc1ccc(Cl)cc1 [Compound A1.78]		completely inhibit fungal infestation	completely inhibit fungal infestation	completely inhibit fungal infestation
